Assay results taken from US20230017785A1, “COMPANION DIAGNOSTICS FOR COMPLEMENT INHIBITORS” (THE JOHNS HOPKINS UNIVERSITY, priority 2019, published 2023).
Entries after “also recorded” stand apart in the source; their conditions may differ.

Key:
[1] = system: PIGA null TF-1 cells; settings: previously demonstrated (ref. 46); cited from earlier work
[2] = system: C5b-9 deposition on PIGA null TF-1 cells; experiment: Flow cytometry for C5b-9 deposition; assay type: cell-based, human; settings: for Inhibition of C5b-9 deposition induced by APS patient sera: APS patient sera on PIGA null TF-1 cells; for Inhibition of C5b-9 deposition induced by CAPS sera: CAPS patient sera (e.g. CAPS5); for Inhibition of C5b-9 deposition induced by patient-derived IgG anti-β2GPI antibody: anti-β2GPI from thrombotic APS patient APS21 added to normal human serum
Procedure: Patient derived anti-β2GPI antibodies. Anti-β2GPI antibodies from two patients were affinity purified using a column of Affigel HZ to which purified human β2GPI was coupled (Bio-Rad Laboratories, Hercules, Calif.), as previously described.^43 IgG purity was assessed by reduced SDS-PAGE. Complement activation (C5b-9 deposition and complement dependent cell killing in mHam) induced by patient-derived anti-β2GPI antibodies was tested by adding patient-derived anti-β2GPI antibodies to normal human serum (Cat. NHS, Complement Technology, Inc.).
Flow cytometry for C5b-9 deposition. Flow cytometry was performed to evaluate cell surface deposition of C5b-9 deposition on PIGA null TF1 cells. Cells were seeded in V-bottom 96-well plates (1.2×10^5 cells/well) either in GVB^0.MgEGTA (pH 6.4) buffer for alternative pathway activation or GVB++ (pH 7.4) buffer for classical pathway activation followed by addition of APS patient serum (or patient-derived aPL added to normal human serum). The reaction was incubated for 15 min at 37° C., and stopped by adding FACS buffer/EDTA. Cell pellets were separated by centrifugation at 1900 rpm for 3 minutes at room temperature and then stained with Alexa 488 conjugated anti-C3c antibody (Cat. 4212, Abcam, dilution at 1:100) and […] monoclonal primary antibody (Cat. 66768, Abcam, dilution at 1:100), followed by Alexa 647 conjugated secondary antibody. C5b-9 deposition was measured by a BD FACSCalibur. Ten thousand events were recorded per sample and analyzed using FlowJo software version 10.5.3 (FlowJo Inc). Normal human serum was used as a negative control for flow cytometry assays. We also evaluated the effect of adding anti-C5 mAb and ACH-4471 on C5b-9 deposition.

[3] = system: PIGA null TF-1 cells; experiment: Modified Ham (mHam) assay, complement-dependent cell killing; assay type: cell-based, human; settings: anti-C5 mAb 10 μg, ACH-4471 0.33 μM; for Inhibition of cell killing in the mHam induced by APS sera: APS patient sera; for Inhibition of mHam cell killing induced by CAPS sera: CAPS patient sera

## CC(=O)c1nn(CC(=O)N2C[C@H](F)C[C@H]2C(=O)Nc2cccc(Br)n2)c2ccc(-c3cnc(C)nc3)cc12 [ACH-4471]
[1]
  Blocking complement dependent killing in the mHam with aHUS serum: highly effective in blocking
[2]
  Inhibition of C5b-9 deposition induced by APS patient sera: less so
  Inhibition of C5b-9 deposition induced by CAPS sera: partially blocked; also recorded: partially inhibited
  Inhibition of C5b-9 deposition induced by patient-derived IgG anti-β2GPI antibody: partially
[2]; listed as ACH4471
  Inhibition of C5b-9 deposition induced by APS patient sera: did not appreciably inhibit; also recorded: did not prevent
  Inhibition of C5b-9 deposition induced by CAPS sera: partially
[2]; aHUS patient PS-18 sera
  Inhibition of C5b-9 deposition induced by aHUS patient sera: completely inhibited
[2]; listed as factor D inhibitor
  Inhibition of C5b-9 deposition induced by patient-derived IgG anti-β2GPI antibody: minimally inhibited
[3]
  Inhibition of cell killing in the mHam induced by APS sera: less so
  Inhibition of mHam cell killing induced by CAPS sera: partially blocked; also recorded: partially inhibited
[3]; listed as ACH4471
  Inhibition of cell killing in the mHam induced by APS sera: did not prevent cell killing
[3]; listed as factor D inhibitor
  Inhibition of mHam cell killing induced by CAPS sera: attenuated
